Measured values published in patent US20240132431A1, “METHOD FOR ALKYLATING ACIDIC FUNCTIONAL GROUP” (Chugai Seiyaku Kabushiki Kaisha, priority 2021, published 2024).

Biological target: T1, Bcl-2 protein (Recombinant Human Bcl-2 Protein) (Homo sapiens, UniProt P10415)
T1 construct: purchased Novus NBP2-34889
Experiment: Binding evaluation of mixture library compounds to Bcl-2 using AS-MS (affinity selection mass spectrometry)
Conditions: for ASMS ratio (%) n = 1 / ASMS ratio (%) n = 2: ASMS Ratio(%)=(A−C)/B×100; for ASMS ratio (%) n = 1: replicate n = 1; for ASMS ratio (%) n = 2: replicate n = 2
Outline: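 Readout is ASMS Ratio (%), (A−C)/B×100, from reversed-phase LC/MS of SEC-passed extracts, with protein-free unfiltered standard (B) and protein-free SEC blank (C). Recombinant human Bcl-2 at 20 μM final met ~1200 pooled compounds at […] each for 1 h, 23° C., dark, in Tris-HCl pH 7.4 buffer.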

[1] = AS-MS, mixture of 1200 compounds, Bcl-2
[2] = AS-MS on the mixture of 1200 library compounds

T1 sequence (P10415 whole entry): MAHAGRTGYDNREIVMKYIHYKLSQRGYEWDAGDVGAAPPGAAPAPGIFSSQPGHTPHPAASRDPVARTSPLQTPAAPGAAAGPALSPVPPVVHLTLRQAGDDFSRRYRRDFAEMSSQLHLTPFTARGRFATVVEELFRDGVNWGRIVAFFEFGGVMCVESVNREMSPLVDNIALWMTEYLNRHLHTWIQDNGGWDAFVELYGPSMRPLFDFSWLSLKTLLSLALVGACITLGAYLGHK

## CCOc1cncc(-c2cnn(-c3cc(C(=O)N4CCN(c5ccc(C(=O)NS(C)(=O)=O)cc5)CC4)cc(C(F)(F)F)c3)c2)c1 [B2I044-01, 4-[4-[3-[4-(5-Ethoxypyridin-3-yl)pyrazol-1-yl]-5-(trifluoromethyl)benzoyl]piperazin-1-yl]-N-methylsulfonylbenzamide]
N = 1
  ASMS ratio (%): 0.0%
N = 2
  ASMS ratio (%): 0.0%

## CCOc1cncc(-c2ccc(CN3CCN(c4ccc(C(=O)NS(=O)(=O)C(C)(C)C)nn4)CC3)c(CC)c2)c1 [B2L076-01, N-tert-Butylsulfonyl-6-[4-[[4-(5-ethoxypyridin-3-yl)-2-ethylphenyl]methyl]piperazin-1-yl]pyridazine-3-carboxamide]
N = 1
  ASMS ratio (%): 1.8%
N = 2
  ASMS ratio (%): −0.3%

## CCCNC(=O)c1ccc(N2CCN(Cc3ccccc3C#Cc3cccc(OCC)c3)CC2)cc1 [B1M052-01]
[1]
  ASMS ratio (%) n = 1: 27.6%
  ASMS ratio (%) n = 2: 20.2%

## CCOc1cncc(C#Cc2ccccc2C(=O)N2CCN(c3ccc(C(=O)NS(C)(=O)=O)cc3)CC2)c1 [B2I030-01, 4-[4-[2-[2-(5-Ethoxypyridin-3-yl)ethynyl]benzoyl]piperazin-1-yl]-N-methylsulfonylbenzamide]
AS-MS, mixture library, Bcl-2
  ASMS ratio (%) n = 1: 0.0%
  ASMS ratio (%) n = 2: 0.0%

## 4-[4-[3-(3-Ethoxyphenyl)-5-(trifluoromethyl)benzoyl]piperazin-1-yl]-N-propylbenzamide [B1M092-01]
[2]
  ASMS ratio (%) n = 2: 0.0%

## CCOc1cccc(C#Cc2ccccc2CN2CCN(c3ccc(C(=O)NS(=O)(=O)c4ccc(NCCSc5ccccc5)c(C(F)(F)F)c4)cc3)CC2)c1 [B2R069-01, 4-[4-[[2-[2-(3-Ethoxyphenyl)ethynyl]phenyl]methyl]piperazin-1-yl]-N-[4-(2-phenylsulfanylethylamino)-3-(trifluoromethyl)phenyl]sulfonylbenzamide]
N = 1
  ASMS ratio (%): 12.3%
N = 2
  ASMS ratio (%): 18.5%

## CCOc1cccc(-c2ccccc2CN2CCN(c3ccc(C(=O)NS(=O)(=O)CCC(F)(F)F)nn3)CC2)c1 [B2N071-01, 6-[4-[[2-(3-Ethoxyphenyl)phenyl]methyl]piperazin-1-yl]-N-(3,3,3-trifluoropropylsulfonyl)pyridazine-3-carboxamide]
N = 1
  ASMS ratio (%): 0.0%
N = 2
  ASMS ratio (%): 0.0%

## CCOc1cccc(-c2ccc(C(C)N3CCN(c4ccc(C(=O)N(C)CC56CC7CC(CC(C7)C5)C6)cc4)CC3)cc2)c1 (stereo not drawn) [B3A097-01, N-(1-Adamantylmethyl)-4-[4-[1-[4-(3-ethoxyphenyl)phenyl]ethyl]piperazin-1-yl]-N-methylbenzamide]
[2]
  ASMS ratio (%) n = 1: 1.8%
  ASMS ratio (%) n = 2: −5.9%

## CCOc1cncc(-c2cc(CN3CCN(c4ccc(C(=O)NS(=O)(=O)C(C)(C)C)cc4)CC3)cc(OC(F)(F)F)c2)c1 [B2L064-01, N-tert-Butylsulfonyl-4-[4-[[3-(5-ethoxypyridin-3-yl)-5-(trifluoromethoxy)phenyl]methyl]piperazin-1-yl]benzamide]
N = 1
  ASMS ratio (%): 0.0%
N = 2
  ASMS ratio (%): 0.0%

## 4-[4-[[4-(3-Ethoxyphenyl)-2,6-dimethoxyphenyl]methyl]piperazin-1-yl]-N-propylbenzamide [B1M020-01]
[1]
  ASMS ratio (%) n = 1: 0.0%
  ASMS ratio (%) n = 2: 0.0%

## CCOc1cncc(-c2ccc(CN3CCN(c4ccc(C(=O)N(CC)CC)nn4)CC3)cc2C)c1 [B4J074-01, 6-[4-[[4-(5-Ethoxypyridin-3-yl)-3-methylphenyl]methyl]piperazin-1-yl]-N,N-diethylpyridazine-3-carboxamide]
AS-MS, mixture library, Bcl-2
  ASMS ratio (%) n = 1: 0.0%
  ASMS ratio (%) n = 2: 0.0%

## CCOc1cncc(-c2ccc(CN3CCN(c4ccc(C(=O)NS(C)(=O)=O)nn4)CC3)cc2C)c1 [B2I074-01, 6-[4-[[4-(5-Ethoxypyridin-3-yl)-3-methylphenyl]methyl]piperazin-1-yl]-N-methylsulfonylpyridazine-3-carboxamide]
N = 1
  ASMS ratio (%): 0.0%
N = 2
  ASMS ratio (%): −8.4%

## CCOc1cccc(-c2cc(C(=O)N3CCN(c4ccc(C(=O)NS(=O)(=O)c5ccc(NCCSc6ccccc6)c(C(F)(F)F)c5)cc4)CC3)cc(C(F)(F)F)c2)c1 [B2R039-01, 4-[4-[3-(3-Ethoxyphenyl)-5-(trifluoromethyl)benzoyl]piperazin-1-yl]-N-[4-(2-phenylsulfanylethylamino)-3-(trifluoromethyl)phenyl]sulfonylbenzamide]
N = 1
  ASMS ratio (%): 9.7%
N = 2
  ASMS ratio (%): −4.8%

## CCOc1cncc(-c2ccc(CN3CCN(c4ccc(C(=O)NS(C)(=O)=O)cc4)CC3)cc2F)c1 [B2I052-01, 4-[4-[[4-(5-Ethoxypyridin-3-yl)-3-fluorophenyl]methyl]piperazin-1-yl]-N-methylsulfonylbenzamide]
N = 1
  ASMS ratio (%): 0.0%
N = 2
  ASMS ratio (%): 0.0%

## CCOc1cncc(-c2ccc(C(C)N3CCN(c4ccc(C(=O)NS(=O)(=O)C(C)(C)C)cc4)CC3)cc2)c1 (stereo not drawn) [B2L098-01, N-tert-Butylsulfonyl-4-[4-[1-[4-(5-ethoxypyridin-3-yl)phenyl]ethyl]piperazin-1-yl]benzamide]
N = 1
  ASMS ratio (%): 3.9%
N = 2
  ASMS ratio (%): −5.0%

## CCOc1cccc(-c2cc(CN3CCN(c4ccc(C(=O)NS(=O)(=O)CC56CC7CC(CC(C7)C5)C6)cc4)CC3)cc(C(F)(F)F)c2)c1 [B2A061-01, N-(1-Adamantylmethylsulfonyl)-4-[4-[[3-(3-ethoxyphenyl)-5-(trifluoromethyl)phenyl]methyl]piperazin-1-yl]benzamide]
AS-MS, mixture library, Bcl-2
  ASMS ratio (%) n = 1: 1.7%
  ASMS ratio (%) n = 2: −5.6%

## CCOc1cncc(-c2cc(CN3CCN(c4ccc(C(=O)N(CC)CC)nn4)CC3)cc(OC(C)C)c2)c1 [B4J084-01, 6-[4-[[3-(5-Ethoxypyridin-3-yl)-5-propan-2-yloxyphenyl]methyl]piperazin-1-yl]-N,N-diethylpyridazine-3-carboxamide]
AS-MS, mixture library, Bcl-2
  ASMS ratio (%) n = 1: 0.0%
  ASMS ratio (%) n = 2: −0.6%

## CCOc1cccc(-c2ccccc2CN2CCN(c3ccc(C(=O)NS(C)(=O)=O)nn3)CC2)c1 [B2I071-01, 6-[4-[[2-(3-Ethoxyphenyl)phenyl]methyl]piperazin-1-yl]-N-methylsulfonylpyridazine-3-carboxamide]
N = 1
  ASMS ratio (%): −1.2%
N = 2
  ASMS ratio (%): −1.9%

## CCOc1cncc(-c2cc(CN3CCN(c4ccc(C(=O)NS(C)(=O)=O)nn4)CC3)cc(OC(F)(F)F)c2)c1 [B2I090-01, 6-[4-[[3-(5-Ethoxypyridin-3-yl)-5-(trifluoromethoxy)phenyl]methyl]piperazin-1-yl]-N-methylsulfonylpyridazine-3-carboxamide]
N = 1
  ASMS ratio (%): 0.0%
N = 2
  ASMS ratio (%): 0.0%

## CCOc1cccc(-c2cc(CN3CCN(c4ccc(C(=O)NS(=O)(=O)CCC(F)(F)F)cc4)CC3)cc(C(F)(F)F)c2)c1 [B2N061-01]
N = 1
  ASMS ratio (%): 0.0%
N = 2
  ASMS ratio (%): 0.0%

## CCOc1cccc(C#Cc2ccccc2CN2CCN(c3ccc(C(=O)NS(=O)(=O)CC45CC6CC(CC(C6)C4)C5)nn3)CC2)c1 [B2A095-01, N-(1-Adamantylmethylsulfonyl)-6-[4-[[2-[2-(3-ethoxyphenyl)ethynyl]phenyl]methyl]piperazin-1-yl]pyridazine-3-carboxamide]
AS-MS, mixture library, Bcl-2
  ASMS ratio (%) n = 1: 1.6%
  ASMS ratio (%) n = 2: 13.8%

## CCOc1cccc(-c2ccc(C(=O)N3CCN(c4ccc(C(=O)Nc5ccc(OC)cc5)nn4)CC3)c3ccccc23)c1 [B1O013-01, 6-[4-[4-(3-Ethoxyphenyl)naphthalene-1-carbonyl]piperazin-1-yl]-N-(4-methoxyphenyl)pyridazine-3-carboxamide]
[2]
  ASMS ratio (%) n = 1: 2.2%
  ASMS ratio (%) n = 2: −4.0%

## CCOc1cncc(-c2ccc(CN3CCN(c4ccc(C(=O)N(CC)CC)cc4)CC3)cc2F)c1 [B4J052-01]
[2]
  ASMS ratio (%) n = 1: 0.5%
  ASMS ratio (%) n = 2: −1.5%

## CCOc1cccc(-c2ccc(CN3CCN(c4ccc(C(=O)NS(=O)(=O)C(C)(C)C)nn4)CC3)c3ccccc23)c1 [B2L091-01, N-tert-Butylsulfonyl-6-[4-[[4-(3-ethoxyphenyl)naphthalen-1-yl]methyl]piperazin-1-yl]pyridazine-3-carboxamide]
N = 1
  ASMS ratio (%): 0.0%
N = 2
  ASMS ratio (%): 0.0%

## CCOc1cncc(-c2cc(CN3CCN(c4ccc(C(=O)Nc5ccc(OC)cc5)nn4)CC3)cc(OC(F)(F)F)c2)c1 [B1O090-01, 6-[4-[[3-(5-Ethoxypyridin-3-yl)-5-(trifluoromethoxy)phenyl]methyl]piperazin-1-yl]-N-(4-methoxyphenyl)pyridazine-3-carboxamide]
[2]
  ASMS ratio (%) n = 1: 3.3%
  ASMS ratio (%) n = 2: −2.0%

## CCOc1cccc(-c2ccc(CN3CCN(c4ccc(C(=O)NS(=O)(=O)C(C)(C)C)nn4)CC3)cc2F)c1 [B2L077-01, N-tert-Butylsulfonyl-6-[4-[[4-(3-ethoxyphenyl)-3-fluorophenyl]methyl]piperazin-1-yl]pyridazine-3-carboxamide]
N = 1
  ASMS ratio (%): 0.0%
N = 2
  ASMS ratio (%): 0.0%
